Broadly, the IC50 is the concentration that inhibits the measured activity by half.

The first assay in a line: In vitro cytotoxicity in different cell lines using the CellTiter-Blue Cell Viability Assay. Format: cell-based, human. Conditions: Homo sapiens, 96 h, read-out: Geomean IC50. In general terms: Resazurin is reduced to fluorescent resorufin, in cell work by metabolically active cells.
For the molecule `COc1cc2cc(c1Cl)N(C)C(=O)C[C@H](OC(=O)CNC(=O)c1ccc(C(C)=O)cc1)[C@]1(C)O[C@H]1[C@H](C)[C@@H]1C[C@@](O)(NC(=O)O1)[C@H](OC)/C=C/C=C(\C)C2` [Compound 21], the IC50 amounted to 1.67 nM.
As to `CCN(CC(=O)O[C@H]1CC(=O)N(C)c2cc(cc(OC)c2Cl)C/C(C)=C/C=C/[C@@H](OC)[C@@]2(O)C[C@H](OC(=O)N2)[C@@H](C)[C@@H]2O[C@@]12C)C(=O)c1ccc(C(C)=O)cc1` [Compound 22], the IC50 amounted to 25 nM.
On the same count and under the same terms, under `COc1cc2cc(c1Cl)N(C)C(=O)C[C@H](OC(=O)CN(C)C(=O)c1ccc(C(C)=O)nc1)[C@]1(C)O[C@H]1[C@H](C)[C@@H]1C[C@@](O)(NC(=O)O1)[C@H](OC)/C=C/C=C(\C)C2` [Compound 26] stands 18.5 nM.
Same read-out and setting: the figure for `COc1cc2cc(c1Cl)N(C)C(=O)C[C@H](OC(=O)CN(C)c1ccc(C(C)=O)cc1)[C@]1(C)O[C@H]1[C@H](C)[C@@H]1C[C@@](O)(NC(=O)O1)[C@H](OC)/C=C/C=C(\C)C2` [Compound 10] is 0.3 nM; for `COc1cc2cc(c1Cl)N(C)C(=O)C[C@H](OC(=O)CSc1ccc(C(C)=O)cc1)[C@]1(C)O[C@H]1[C@H](C)[C@@H]1C[C@@](O)(NC(=O)O1)[C@H](OC)/C=C/C=C(\C)C2` [Compound 11] it is 0.21 nM; for `COc1cc2cc(c1Cl)N(C)C(=O)C[C@H](OC(=O)CN(C)C(=O)c1ccc(C(C)=O)cc1)[C@]1(C)O[C@H]1[C@H](C)[C@@H]1C[C@@](O)(NC(=O)O1)[C@H](OC)/C=C/C=C(\C)C2` [Compound 25] it is 8.47 nM.
On to `COc1cc2cc(c1Cl)N(C)C(=O)C[C@H](OC(=O)Cc1ccc(C(C)=O)c([N+](=O)[O-])c1)[C@]1(C)O[C@H]1[C@H](C)[C@@H]1C[C@@](O)(NC(=O)O1)[C@H](OC)/C=C/C=C(\C)C2` [Compound 7], for which the IC50 was 0.89 nM.
For `COc1cc2cc(c1Cl)N(C)C(=O)C[C@H](OC(=O)Cc1ccc(C(C)=O)cc1[N+](=O)[O-])[C@]1(C)O[C@H]1[C@H](C)[C@@H]1C[C@@](O)(NC(=O)O1)[C@H](OC)/C=C/C=C(\C)C2` [Compound 6], the IC50 was 2.14 nM.
In the case of `COc1cc2cc(c1Cl)N(C)C(=O)C[C@H](OC(=O)CSc1ccc(C(C)=O)cc1C(F)(F)F)[C@]1(C)O[C@H]1[C@H](C)[C@@H]1C[C@@](O)(NC(=O)O1)[C@H](OC)/C=C/C=C(\C)C2` [Compound 13], the IC50 was 0.88 nM.
Still for that read-out and setting: the figure for `COc1cc(C(C)=O)ccc1SCC(=O)O[C@H]1CC(=O)N(C)c2cc(cc(OC)c2Cl)C/C(C)=C/C=C/[C@@H](OC)[C@@]2(O)C[C@H](OC(=O)N2)[C@@H](C)[C@@H]2O[C@@]12C` [Compound 17] is 0.45 nM; for `COc1cc2cc(c1Cl)N(C)C(=O)C[C@H](OC(=O)Cc1ccc(C(C)=O)c(F)c1)[C@]1(C)O[C@H]1[C@H](C)[C@@H]1C[C@@](O)(NC(=O)O1)[C@H](OC)/C=C/C=C(\C)C2` [Compound 5] it is 0.9 nM.
The same measure, in the same setting: the figure for `COc1cc2cc(c1Cl)N(C)C(=O)C[C@H](OC(=O)Nc1ccc(C(C)=O)cc1)[C@]1(C)O[C@H]1[C@H](C)[C@@H]1C[C@@](O)(NC(=O)O1)[C@H](OC)/C=C/C=C(\C)C2` [Compound 28] is 10.6 nM; for `COc1cc2cc(c1Cl)N(C)C(=O)C[C@H](OC(=O)CCCc1ccc(C(C)=O)cc1)[C@]1(C)O[C@H]1[C@H](C)[C@@H]1C[C@@](O)(NC(=O)O1)[C@H](OC)/C=C/C=C(\C)C2` [Compound 8] it is 0.1 nM; for `COc1cc2cc(c1Cl)N(C)C(=O)C[C@H](OC(=O)C1CCCN1C(=O)Nc1ccc(C(C)=O)cc1)[C@]1(C)O[C@H]1[C@H](C)[C@@H]1C[C@@](O)(NC(=O)O1)[C@H](OC)/C=C/C=C(\C)C2` (some centres unmarked) [Compound 23] it is 26.8 nM.
On the same count and under the same terms, the figure for `COc1cc2cc(c1Cl)N(C)C(=O)C[C@H](OC(=O)CCNC(=O)c1ccc(C(C)=O)cc1)[C@]1(C)O[C@H]1[C@H](C)[C@@H]1C[C@@](O)(NC(=O)O1)[C@H](OC)/C=C/C=C(\C)C2` [Compound 27] is 11.7 nM; for `COc1cc2cc(c1Cl)N(C)C(=O)C[C@H](OC(=O)C(C)(C)Oc1ccc(C(C)=O)cc1)[C@]1(C)O[C@H]1[C@H](C)[C@@H]1C[C@@](O)(NC(=O)O1)[C@H](OC)/C=C/C=C(\C)C2` [Compound 19] it is 1.12 nM.
`COc1cc2cc(c1Cl)N(C)C(=O)C[C@H](OC(=O)CCc1ccc(C(C)=O)cc1)[C@]1(C)O[C@H]1[C@H](C)[C@@H]1C[C@@](O)(NC(=O)O1)[C@H](OC)/C=C/C=C(\C)C2` [Compound 9]: the IC50 was 0.19 nM.
Regarding `COc1cc2cc(c1Cl)N(C)C(=O)C[C@H](OC(=O)CSc1ccc(C(C)=O)cc1Br)[C@]1(C)O[C@H]1[C@H](C)[C@@H]1C[C@@](O)(NC(=O)O1)[C@H](OC)/C=C/C=C(\C)C2` [Compound 16], the IC50 was determined as 0.32 nM.
On the same count and under the same terms, the figure for `COc1cc2cc(c1Cl)N(C)C(=O)C[C@H](OC(=O)[C@H](C)N(C)C(=O)CCC(C)=O)[C@]1(C)O[C@H]1[C@H](C)[C@@H]1C[C@@](O)(NC(=O)O1)[C@H](OC)/C=C/C=C(\C)C2` [Compound 44] is 7.21 nM; for `COc1cc2cc(c1Cl)N(C)C(=O)C[C@H](OC(=O)[C@H](C)N(C)C(=O)c1ccc(C(C)=O)cc1)[C@]1(C)O[C@H]1[C@H](C)[C@@H]1C[C@@](O)(NC(=O)O1)[C@H](OC)/C=C/C=C(\C)C2` [Compound 24] it is 9.04 nM; for `COc1cc2cc(c1Cl)N(C)C(=O)C[C@H](OC(=O)CSc1ccc(C(C)=O)cc1C)[C@]1(C)O[C@H]1[C@H](C)[C@@H]1C[C@@](O)(NC(=O)O1)[C@H](OC)/C=C/C=C(\C)C2` [Compound 12] it is 0.76 nM.
As for `COc1cc2cc(c1Cl)N(C)C(=O)C[C@H](OC(=O)CSc1ccc(C(C)=O)cc1[N+](=O)[O-])[C@]1(C)O[C@H]1[C@H](C)[C@@H]1C[C@@](O)(NC(=O)O1)[C@H](OC)/C=C/C=C(\C)C2` [Compound 14], the IC50 was 1.54 nM.
Same read-out and setting: under `COc1cc2cc(c1Cl)N(C)C(=O)C[C@H](OC(=O)C1CCCN1C(=O)c1ccc(C(C)=O)cc1)[C@]1(C)O[C@H]1[C@H](C)[C@@H]1C[C@@](O)(NC(=O)O1)[C@H](OC)/C=C/C=C(\C)C2` (some centres unmarked) [Compound 20] stands 0.94 nM.
`COc1cc2cc(c1Cl)N(C)C(=O)C[C@H](OC(=O)COc1ccc(C(C)=O)cc1)[C@]1(C)O[C@H]1[C@H](C)[C@@H]1C[C@@](O)(NC(=O)O1)[C@H](OC)/C=C/C=C(\C)C2` [Compound 18]: the IC50 was found to be 0.13 nM.
With `COc1cc2cc(c1Cl)N(C)C(=O)C[C@H](OC(=O)CSc1ccc(C(C)=O)cc1Cl)[C@]1(C)O[C@H]1[C@H](C)[C@@H]1C[C@@](O)(NC(=O)O1)[C@H](OC)/C=C/C=C(\C)C2` [Compound 15], the IC50 was determined as 0.18 nM.

The same assay, now with this note: Homo sapiens; geometric mean over the n cell lines tested, 96 h treatment, CellTiter-Blue; read-out: Geomean IC50.
Consider `COc1cc2cc(c1Cl)N(C)C(=O)CC(O)C1(C)OC1C(C)C1CC(O)(NC(=O)O1)C(OC)/C=C/C=C(\C)C2` (centres unmarked) [Maytansinol, reference compound], for which the IC50 was found to be 86 nM.

For the origin of these results see US11572373B2, “Maytansinoid-based drug delivery systems” (LADRX CORPORATION, priority 2017, dated 2023).
